Assay results taken from patent US20250302948A1, “DR5 Agonist and IAP Antagonist Combination Therapy” (Inhibrx Biosciences, Inc., priority 2022, published 2025).

Key:
[1] = system: HT-29; assay: CellTiter-Glo cell viability, 48 h (Example 1); format: cell-based; details: Homo sapiens
Description: (§1) Test Article Preparation for INBRX-109.
(§2) Day 2—Test and Control Article Addition.
(§3) Day 4—Viability Measurements. […] Data was graphed in GraphPad Prism 7.

[2] = system: SNU-C2B; assay: CellTiter-Glo cell viability, 48 h (Example 1); format: cell-based; details: Homo sapiens
Description: as §1, §2, §3

[3] = system: LS411N; assay: CellTiter-Glo cell viability, 48 h (Example 1); format: cell-based; details: Homo sapiens, LS-411N
Description: as §1, §2, §3

[4] = system: LS174T; assay: CellTiter-Glo cell viability, 48 h (Examples 1, 2); format: cell-based; details: Homo sapiens, LCL-161 5 uM alone
Description: as §1, §2, §3

[5] = system: SW620; assay: CellTiter-Glo cell viability, 48 h (Examples 1, 2); format: cell-based; details: Homo sapiens, SW-620
Description: as §1, §2, §3

[6] = system: OSC-19; assay: CellTiter-Glo cell viability, T48 (Example 3); format: cell-based
Description: (§4) Day 2—Compound Treatment.
(§5) Day 4—Viability Measurements.

[7] = system: KYSE-410; assay: CellTiter-Glo cell viability, T48 (Example 3); format: cell-based
Description: as §4, §5

[8] = system: SCC-25; assay: CellTiter-Glo cell viability, T48 (Example 3); format: cell-based
Description: as §4, §5

[9] = system: KYSE-270; assay: CellTiter-Glo cell viability, T48 (Example 3); format: cell-based
Description: as §4, §5

[10] = system: KYSE-70; assay: CellTiter-Glo cell viability, T48 (Example 3); format: cell-based
Description: as §4, §5

[11] = system: SCC-4; assay: CellTiter-Glo cell viability, T48 (Example 3); format: cell-based
Description: as §4, §5

[12] = system: RPMI-2650; assay: CellTiter-Glo cell viability, T48 (Example 3); format: cell-based
Description: as §4, §5

[13] = system: Detroit 562; assay: CellTiter-Glo cell viability, T48 (Example 3); format: cell-based
Description: as §4, §5

[14] = system: FADU; assay: CellTiter-Glo cell viability, T48 (Example 3); format: cell-based
Description: as §4, §5

[15] = system: T.Tn; assay: CellTiter-Glo cell viability, T48 (Example 3); format: cell-based
Description: as §4, §5

[16] = system: KYSE-150; assay: CellTiter-Glo cell viability, T48 (Example 3); format: cell-based
Description: as §4, §5

[17] = system: COLO-680N; assay: CellTiter-Glo cell viability, T48 (Example 3); format: cell-based
Description: as §4, §5

[18] = system: CAL-27; assay: CellTiter-Glo cell viability, T48 (Example 3); format: cell-based
Description: as §4, §5

[19] = system: SCC-9; assay: CellTiter-Glo cell viability, T48 (Example 3); format: cell-based
Description: as §4, §5

[20] = system: TE-1; assay: CellTiter-Glo cell viability, T48 (Example 3); format: cell-based
Description: as §4, §5

[21] = system: SW579; assay: CellTiter-Glo cell viability, T48 (Example 3); format: cell-based
Description: as §4, §5

[22] = system: SCC-15; assay: CellTiter-Glo cell viability, T48 (Example 3); format: cell-based
Description: as §4, §5

[23] = system: A253; assay: CellTiter-Glo cell viability, T48 (Example 3); format: cell-based
Description: as §4, §5

[24] = system: SW1990; assay: Cytotoxicity on pancreatic cancer cell lines, assay similar to Example 1 (Example 4); details: Homo sapiens
Description: (§6) Day 1-Cell Seeding. Monolayer cultures of each cell line were harvested for compound screening as detailed below. Culture medium was aspirated, and the cells were washed once with PBS. Accutase was added and flasks were incubated at 37° C. until cells became detached. An equal volume of complete medium was added to quench the Accutase, and the cells were then pipetted up and down several times to generate a homogenous single cell suspension. The density and viability of cells was determined by Trypan Blue using a TC20 Automated Cell Counter. Experimental cells were resuspended to a concentration of 0.17×10^6/mL in EMEM/10% FBS/Anti-Anti media (complete EMEM) and seeded in the inner wells of 384-well luminescence plates at 15 μL/well (2,500/well final). Each cell line was plated in duplicate on separate plates. […]
(§7) Day 4—Viability Measurements. […] Any visible bubbles were removed with 100% ethanol vapor, then luminescence (RLU) was read on the Spectra Max M5e plate reader, using the 384-well opaque plate setting and SoftMaxPro v5.4 software with an integration time of 50 milliseconds. To determine the effect of test articles on cell viability, raw RLU values were exported to Excel and percent survival was calculated as a percentage of vehicle control (0.2% DMSO in EMEM), where the vehicle control is set at 100%. […]

[25] = system: SNU-1; assay: Cytotoxicity on gastric cancer cell lines, assay similar to Example 1 (Example 4); details: Homo sapiens, SNU1
Description: as §6
(§8) Day 4—Viability Measurements. […] Any visible bubbles were removed with 100% ethanol vapor, then luminescence (RLU) was read on the Spectra Max M5e plate reader, using the 384-well opaque plate setting and SoftMaxPro v5.4 software with an integration time of 50 milliseconds. To determine the effect of test articles on cell viability, raw RLU values were exported to Excel and percent survival was calculated as a percentage of vehicle control (0.2% DMSO in EMEM), where the vehicle control is set at 100%.

[26] = system: NCI-H460; assay: Cytotoxicity on lung cancer cell lines, assay similar to Example 1 (Example 4); details: Homo sapiens
Description: as §6, §7

[27] = system: SNU-5; assay: Cytotoxicity on gastric cancer cell lines, assay similar to Example 1 (Example 4); details: Homo sapiens
Description: as §6, §8

[28] = system: NCI-N87; assay: as above; details: Homo sapiens
Description: as §6, §8

[29] = system: HCC2935; assay: Cytotoxicity on lung cancer cell lines, assay similar to Example 1 (Example 4); details: Homo sapiens
Description: as §6, §7

[30] = system: NCI-H2452; assay: as above; details: Homo sapiens
Description: as §6, §7

[31] = system: NCI-H23; assay: as above; details: Homo sapiens
Description: as §6, §7

[32] = system: MIA-PaCa-2; assay: Cytotoxicity on pancreatic cancer cell lines, assay similar to Example 1 (Example 4); details: Homo sapiens
Description: as §6, §7

[33] = system: AsPC-1; assay: as above; details: Homo sapiens, ASPC1
Description: as §6, §8

[34] = system: A549; assay: Cytotoxicity on lung cancer cell lines, assay similar to Example 1 (Example 4); details: Homo sapiens
Description: as §6, §7

[35] = system: Panc-1; assay: Cytotoxicity on pancreatic cancer cell lines, assay similar to Example 1 (Example 4); details: Homo sapiens
Description: as §6, §8

[36] = system: LOVO; assay: CellTiter-Glo cell viability, 48 h (Example 1); format: cell-based; details: Homo sapiens
Description: as §1, §2, §3

[37] = LCL-161 5 uM alone, read-out: % cytotoxicity
[38] = Homo sapiens, Debio-1143 4.5 μM alone

For `CN[C@@H](C)C(=O)N[C@H](C(=O)N1CCC[C@H]1c1nc(C(=O)c2ccc(F)cc2)cs1)C1CCCCC1` [LCL-161], the cytotoxicity at 5 µM [1, 37] was 6.2%, the cytotoxicity at 5 µM [2, 37] was 72.9% and the cytotoxicity at 5 µM ([3]; LS411N, LCL-161 5 uM alone, read-out: % cytotoxicity) was 10.5%. It also gave a cytotoxicity at 5 µM [4] of 9% and a cytotoxicity at 5 µM ([5]; SW620, LCL-161 5 uM alone, read-out: % cytotoxicity) of 4.7%.

`CN[C@@H](C)C(=O)N[C@H]1CN(C(=O)CC(C)C)CC[C@H]2CC[C@@H](C(=O)NC(c3ccccc3)c3ccccc3)N2C1=O` [Debio-1143, xevinapant] was tested, and the cytotoxicity at 4.5 µM ([6]; OSC19, Debio-1143 4.5 μM alone) was -7.1%, the cytotoxicity at 4.5 µM [7, 38] was -3.3% and the cytotoxicity at 4.5 µM [8, 38] was 0.6%. It also gave a cytotoxicity at 4.5 µM [9, 38] of 8.2%, a cytotoxicity at 4.5 µM [10, 38] of -6.7% and a cytotoxicity at 4.5 µM [11, 38] of 0.7%. For the same molecule, the cytotoxicity at 4.5 µM [12, 38] was 5.6%, the cytotoxicity at 4.5 µM [13, 38] was 9% and the cytotoxicity at 4.5 µM [14, 38] was -3.7%. It also gave a cytotoxicity at 4.5 µM ([15]; Debio-1143 4.5 μM alone) of 4.4%, a cytotoxicity at 4.5 µM [16, 38] of -13.7% and a cytotoxicity at 4.5 µM [17, 38] of 3.4%. For the same molecule, the cytotoxicity at 4.5 µM [18, 38] was 7.2%, the cytotoxicity at 4.5 µM [19, 38] was 2.3% and the cytotoxicity at 4.5 µM [20, 38] was -6%. For the same molecule, the cytotoxicity at 4.5 µM ([21]; Debio-1143 4.5 μM alone) was 7.7%, the cytotoxicity at 4.5 µM [22, 38] was 0.9% and the cytotoxicity at 4.5 µM [23, 38] was 3.2%. It also gave a cytotoxicity at 2 µM [24] of 2.23%, a cytotoxicity at 2 µM [25] of 6.83% and a cytotoxicity at 2 µM [26] of 3.43%. The cytotoxicity at 2 µM [27] was 31.5%, the cytotoxicity at 2 µM [28] was 7.01% and the cytotoxicity at 2 µM [29] was 4.95%. For the same molecule, the cytotoxicity at 2 µM [30] was 2.82%, the cytotoxicity at 4.5 µM [2] was 44.8% and the cytotoxicity at 4.5 µM [3] was 0.4%. It also gave a cytotoxicity at 4.5 µM [5] of 5.5%, a cytotoxicity at 2 µM [31] of 10.8% and a cytotoxicity at 2 µM [32] of 7.37%. For the same molecule, the cytotoxicity at 2 µM [33] was 2.71%, the cytotoxicity at 2 µM [34] was 9.61% and the cytotoxicity at 2 µM [35] was 13.6%.

`C[C@@H]1CN(CC(=O)N2CC(C)(C)c3nc(CO)c(Cc4ccc(F)cc4)cc32)[C@@H](CN2CCOC[C@H]2C)CN1` [ASTX660, tolinapant] gave a cytotoxicity at 0.9 µM ([1]; ASTX660 900 nM alone) of 0.3%, a cytotoxicity at 0.9 µM ([2]; ASTX660 900 nM alone) of 31.1% and a cytotoxicity at 0.9 µM ([3]; LS411N, ASTX660 900 nM alone) of 5.9%. For the same molecule, the cytotoxicity at 0.9 µM ([36]; ASTX660 900 nM alone) was 6.5% and the cytotoxicity at 0.9 µM ([5]; SW620, ASTX660 900 nM alone) was 2.6%.

`CN[C@@H](C)C(=O)N[C@H](C(=O)N1CCC[C@H]1C(=O)N[C@H]1c2ccccc2C[C@H]1OCC#CC#CCO[C@@H]1Cc2ccccc2[C@@H]1NC(=O)[C@@H]1CCCN1C(=O)[C@@H](NC(=O)[C@H](C)NC)C1CCCCC1)C1CCCCC1` [AZD5582] gave a cytotoxicity at 0.45 µM ([1]; AZD5582 450 nM alone) of 23.4%, a cytotoxicity at 0.45 µM ([2]; AZD5582 450 nM alone) of 75.3% and a cytotoxicity at 0.45 µM ([3]; LS411N, AZD5582 450 nM alone) of 12.7%. It also gave a cytotoxicity at 0.45 µM ([36]; AZD5582 450 nM alone) of 28.2% and a cytotoxicity at 0.45 µM ([5]; SW620, AZD5582 450 nM alone) of 4.1%.

B1: INBRX-109: DR5-binding polypeptide consisting of SEQ ID NO: 7, or SEQ ID NO: 7 lacking the terminal lysine; tetravalent DR5 agonist (protein)
chain: EVQLLESGGGEVQPGGSLRLSCAASGLTFPNYGMGWFRQAPGKEREFVSAIYWSGGTVYYAESVKGRFTISRDNAKNTLYLQMSSLRAEDTAVYYCAVTIRGAATQTWKYDYWGQGTLVTVKPGGSGGSEVQLLESGGGEVQPGGSLRLSCAASGLTFPNYGMGWFRQAPGKEREFVSAIYWSGGTVYYAESVKGRFTISRDNAKNTLYLQMSSLRAEDTAVYYCAVTIRGAATQTWKYDYWGQGTLVTVKPGGGGDKTHTCPPCPAPGGPSVFLFPPKPKDTLMISRTPEVTCVVVDVSHEDPEVKFNWYVDGVEVHNAKTKPREEQYNSTYRVVSVLTVLHQDWLNGKEYKCKVSNKALPAPIEKTISKAKGQPREPQVYTLPPSRDELTKNQVSLTCLVKGFYPSDIAVEWESNGQPENNYKTTPPVLDSDGSFFLYSKLTVDKSRWQQGNVFSCSVMHEALHNHYTQKSLSLSPGK
modifications: Synthetic: INBRX-109
notes: tetravalent DR5 agonist
B1 was tested, and the “% cytotoxicity” value ([6]; INBRX-109 1 nM alone) was 100.9%, the “% cytotoxicity” value ([7]; INBRX-109 1 nM alone) was 2.6% and the “% cytotoxicity” value ([8]; INBRX-109 1 nM alone) was 7.9%. The “% cytotoxicity” value ([9]; INBRX-109 1 nM alone) was 7.3%, the “% cytotoxicity” value ([10]; INBRX-109 1 nM alone) was 22.3% and the “% cytotoxicity” value ([11]; INBRX-109 1 nM alone) was 8.5%. The “% cytotoxicity” value ([12]; INBRX-109 1 nM alone) was 2.9%, the “% cytotoxicity” value ([13]; INBRX-109 1 nM alone) was 42.9% and the “% cytotoxicity” value ([14]; INBRX-109 1 nM alone) was 6.1%. For the same molecule, the “% cytotoxicity” value ([15]; INBRX-109 1 nM alone) was 42.9%, the “% cytotoxicity” value ([16]; INBRX-109 1 nM alone) was −0.3% and the “% cytotoxicity” value ([17]; INBRX-109 1 nM alone) was 9.6%. For the same molecule, the “% cytotoxicity” value ([18]; INBRX-109 1 nM alone) was 13.7%, the “% cytotoxicity” value ([19]; INBRX-109 1 nM alone) was 19.4% and the “% cytotoxicity” value ([20]; INBRX-109 1 nM alone) was 38.4%. For the same molecule, the “% cytotoxicity” value ([21]; INBRX-109 1 nM alone) was 101.7%, the “% cytotoxicity” value ([22]; INBRX-109 1 nM alone) was 7.3% and the “% cytotoxicity” value ([23]; INBRX-109 1 nM alone) was 50.9%.
